Data taken from patent US20260109707A1, “HETEROBIFUNCTIONAL COMPOUNDS AND METHODS OF TREATING DISEASE” (Halda Therapeutics OpCo. Inc., priority 2022, published 2026).
Where two headings read alike, the source gives them in different places.

How the values were obtained:
T47D cells = assay: Cellular growth inhibition assay for T47D cells (CellTiter-Glo, 72 hours); assay type: cell-based, human; conditions: 72 hours treatment
Method in brief: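 Growth inhibition as GI50, fitted with four parameters to CellTiter-Glo luminescence after 72 h of compound exposure (0.5% DMSO). Cells were T47D, grown in insulin-supplemented (0.2 units/mL) DMEM with 10% FBS and treated one day post-seeding.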

[1] = test system: T-Rex 293 cell line SC3 cells lacking increased expression of androgen receptor protein; assay: Cellular growth inhibition assay, T-Rex 293 SC3 cells without doxycycline (CellTiter-Glo, 72 hours); assay type: cell-based; conditions: T-Rex 293 cell line SC3 cells not exposed to doxycycline (lacking increased androgen receptor expression)
Method in brief: (§1)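 Doxycycline (10 ng/mL) was either included or omitted to toggle wild-type androgen receptor expression in SC3 cells, a T-Rex 293 clone, grown in stripped-serum, phenol red-free medium. After 72 hours with compound, viable cells were quantified by CellTiter-Glo 2.0.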

[2] = test system: T-Rex 293 cell line SC3 cells having increased expression of androgen receptor protein due to exposure to doxycycline; assay: Cellular growth inhibition assay, T-Rex 293 SC3 cells with doxycycline (CellTiter-Glo, 72 hours); assay type: cell-based; conditions: T-Rex 293 SC3 cells with increased androgen receptor expression due to doxycycline (10 ng/mL)
Method in brief: as §1

VCaP cells = assay: Cellular growth inhibition assay for VCaP cells (CellTiter-Glo, 72 hours); assay type: cell-based, human
Method in brief: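 Luminescent viability signal after 72 h of compound exposure gave GI50 values by four-parameter nonlinear regression. Compounds were added in 0.5% DMSO to cells plated 24 h earlier at 5000/well in DMEM containing 10% FBS.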

| Compound | GI50 (T47D cells; Homo sapiens, T47D, 72 h) | GI50 (VCaP cells; Homo sapiens, VCaP, 72 h) | GI50 (T47D cells) | GI50 (VCaP cells) | GI50 ([1]; 72 h) | GI50 ([2]; 72 h) | GI50 [1] | GI50 [2] |
| --- | --- | --- | --- | --- | --- | --- | --- | --- |
| CNc1ccc2c(n1)C(c1ccc(OC3CC4(CCCN(c5ccc(C(=O)N[C@H]6CC[C@H](Oc7ccc(C#N)c(Cl)c7)CC6)nn5)C4)C3)cc1)=NCc1onc(C)c1-2 (some centres unmarked) [I-107] | > 3000 nM | > 3000 nM |  |  | > 3000 nM | < 500 nM |  |  |
| Cc1sc2c(c1C)C(c1ccc(N(C)CC(=O)N3CCC(c4ccc(C(=O)N[C@H]5CC[C@H](Oc6ccc(C#N)c(Cl)c6)CC5)nn4)CC3)cc1)=N[C@@H](Cc1ncco1)c1nnc(C)n1-2 [I-312] | > 3000 nM | > 3000 nM |  |  | > 3000 nM | > 3000 nM |  |  |
| Cc1sc2c(c1C)C(c1ccc(N3CCC4(CCCN(c5ccc(C(=O)N[C@H]6CC[C@H](Oc7ccc(C#N)c(Cl)c7)CC6)nn5)C4)CC3)cc1)=NCc1nnc(C)n1-2 [I-422] | 500 to 1500 nM | < 500 nM |  |  | > 3000 nM | < 500 nM |  |  |
| Cc1sc2c(c1C)C(c1ccc(N3CCN(C(=O)c4ccc(C(=O)N[C@H]5CC[C@H](Oc6ccc(C#N)c(Cl)c6)CC5)nn4)CC3)cc1)=N[C@@H](Cc1ncco1)c1nnc(C)n1-2 [I-250] | 500 to 1500 nM | > 3000 nM |  |  | > 3000 nM | < 500 nM |  |  |
| Cc1sc2c(c1C)C(c1ccc(CCO[C@H]3CCCN(c4ccc(C(=O)N[C@H]5CC[C@H](Oc6ccc(C#N)c(Cl)c6)CC5)nn4)C3)cc1)=N[C@@H](C)c1nnc(C)n1-2 [I-325] | 1500 to 3000 nM | 1500 to 3000 nM |  |  | > 3000 nM | < 500 nM |  |  |
| CC1=NN=C2C1c1sc(C)c(C)c1C(c1ccc(C3CCC4(CC3)CCN(c3ccc(C(=O)N[C@H]5CC[C@H](Oc6ccc(C#N)c(Cl)c6)CC5)nn3)CC4)cc1)=N[C@@H]2Cc1ncco1 (some centres unmarked) [I-410] | < 500 nM | < 500 nM |  |  | < 500 nM | < 500 nM |  |  |
| Cc1sc2c(c1C)C(c1ccc(OC3CC4(CCN(c5ccc(C(=O)N[C@H]6CC[C@H](Oc7ccc(C#N)c(Cl)c7)CC6)nn5)CC4)C3)cc1)=N/C(=C/c1ncco1)c1nnc(C)n1-2 [I-135, N-[4-(3-chloro-4-cyano-phenoxy)cyclohexyl]-6-[2-[4-[(9E)-4,5,13-trimethyl-9-(oxazol-2-ylmethylene)-3-thia-1,8,11,12-tetrazatricyclo[8.3.0.02,6]trideca-2(6),4,7,10,12-pentaen-7-yl]phenoxy]-7-azaspiro[3.5]nonan-7-yl]pyridazine-3-carboxamide] | > 3000 nM | < 500 nM |  |  | > 3000 nM | < 500 nM |  |  |
| Cc1sc2c(c1C)C(c1ccc(CCC[C@H]3CCCN(c4ccc(C(=O)N[C@H]5CC[C@H](Oc6ccc(C#N)c(Cl)c6)CC5)nn4)C3)cc1)=N[C@@H](C)c1nnc(C)n1-2 [I-323] | 500 to 1500 nM | < 500 nM |  |  | 500 to 1500 nM | < 500 nM |  |  |
| Cc1sc2c(c1C)C(c1ccc(CC3CC4(CCN(c5ccc(C(=O)N[C@H]6CC[C@H](Oc7ccc(C#N)c(Cl)c7)CC6)nn5)CC4)C3)cc1)=N[C@@H](C)c1nnc(C)n1-2 [I-335] | < 500 nM | < 500 nM |  |  | > 3000 nM | < 500 nM |  |  |
| CCNC(=O)C[C@@H]1N=C(c2ccc(N3CC(N4CCN(c5ccc(C(=O)N[C@H]6CC[C@H](Oc7ccc(C#N)c(Cl)c7)CC6)nn5)CC4)C3)cc2)c2c(sc(C)c2C)-n2c(C)nnc21 [I-40] | 500 to 1500 nM | < 500 nM |  |  | 500 to 1500 nM | < 500 nM |  |  |
| Cc1sc2c(c1C)C(c1ccc(-c3ccc(C4CCN(c5ccc(C(=O)NC6CCC(Oc7ccc(C#N)c(Cl)c7)CC6)nn5)CC4)cc3)cc1)=N[C@@H](Cc1ncco1)c1nnc(C)n1-2 (some centres unmarked) [I-369] | > 3000 nM | < 500 nM |  |  | > 3000 nM | > 3000 nM |  |  |
| Cc1sc2c(c1C)C(c1ccc(OC3CC4(CCN(c5ccc(C(=O)N[C@H]6CC[C@H](Oc7ccc(C#N)c(Cl)c7)CC6)nn5)CC4)C3)nc1)=N[C@@H](C)c1nnc(C)n1-2 [I-433] | 500 to 1500 nM |  |  | > 3000 nM |  | < 500 nM | 500 to 1500 nM |  |
| Cc1sc2c(c1C)C(c1ccc(C#CC3CC4(C3)CN(c3ccc(C(=O)N[C@H]5CC[C@H](Oc6ccc(C#N)c(Cl)c6)CC5)nn3)C4)nc1)=N[C@H](Cc1ncco1)c1nnc(C)n1-2 [I-322] | < 500 nM | < 500 nM |  |  | < 500 nM | < 500 nM |  |  |

Now from value to compound, other results behind:

| GI50 (T47D cells; Homo sapiens, T47D, 72 h) | GI50 (VCaP cells; Homo sapiens, VCaP, 72 h) | GI50 (T47D cells) | GI50 (VCaP cells) | Compound | GI50 ([1]; 72 h) | GI50 ([2]; 72 h) | GI50 [1] | GI50 [2] |
| --- | --- | --- | --- | --- | --- | --- | --- | --- |
| < 500 nM | < 500 nM |  |  | Cc1sc2c(c1C)C(c1ccc(OC[C@@H]3CC[C@@]4(CCCN(c5ccc(C(=O)N[C@H]6CC[C@H](Oc7ccc(C#N)c(Cl)c7)CC6)nn5)C4)C3)cc1)=N[C@@H](Cc1ncco1)c1nnc(C)n1-2 [I-103] | < 500 nM | < 500 nM |  |  |
| < 500 nM | < 500 nM |  |  | Cc1sc2c(c1C)C(c1ccc(N3CC(C4CCN(c5ccc(C(=O)N[C@H]6CC[C@H](Oc7ccc(C#N)c(Cl)c7)CC6)nn5)CC4)C3)cc1)=N[C@@H](Cc1ncco1)c1nnc(C)n1-2 [I-386] | < 500 nM | < 500 nM |  |  |
| < 500 nM | < 500 nM |  |  | Cc1sc2c(c1C)C(c1ccc(OC[C@H]3C[C@@]4(CCCN(c5ccc(C(=O)N[C@H]6CC[C@H](Oc7ccc(C#N)c(Cl)c7)CC6)nn5)C4)C3)cc1)=N[C@@H](Cc1ncco1)c1nnc(C)n1-2 [I-105] | < 500 nM | < 500 nM |  |  |
| < 500 nM | < 500 nM |  |  | Cc1sc2c(c1C)C(c1ccc(N3CCC4(CCN(c5ccc(C(=O)N[C@H]6CC[C@H](Oc7ccc(C#N)c(Cl)c7)CC6)nn5)CC4)C3)cc1)=N[C@@H](Cc1ncco1)c1nnc(C)n1-2 [I-388] | < 500 nM | < 500 nM |  |  |
|  | < 500 nM | 1500 to 3000 nM |  | Cc1sc2c(c1C)C(c1ccc(O[C@@H]3CC[C@@]4(CCCN(c5ccc(C(=O)N[C@H]6CC[C@H](Oc7ccc(C#N)c(Cl)c7)CC6)nn5)C4)C3)nc1)=N[C@@H](Cc1ncco1)c1nnc(C)n1-2 [I-285] |  | < 500 nM | > 3000 nM |  |
|  |  | < 500 nM | < 500 nM | Cc1sc2c(c1C)C(c1ccc(OC[C@H]3C[C@]4(CCCN(c5ccc(C(=O)N[C@H]6CC[C@H](Oc7ccc(C#N)c(Cl)c7)CC6)nn5)C4)C3)cc1)=N[C@@H](Cc1ncco1)c1nnc(C)n1-2 [I-104] |  | < 500 nM | < 500 nM |  |
| < 500 nM | < 500 nM |  |  | Cc1sc2c(c1C)C(c1ccc(CC3CN([C@H]4CCN(c5ccc(C(=O)N[C@H]6CC[C@H](Oc7ccc(C#N)c(Cl)c7)CC6)nn5)C4)C3)cc1)=N[C@@H](Cc1ncco1)c1nnc(C)n1-2 [I-116] | < 500 nM | < 500 nM |  |  |
| 500 to 1500 nM | < 500 nM |  |  | Cc1sc2c(c1C)C(c1ccc([C@H]3CCN(C(=O)[C@H]4CCCN(c5ccc(C(=O)N[C@H]6CC[C@H](Oc7ccc(C#N)c(Cl)c7)CC6)nn5)C4)C3)cc1)=N[C@@H](Cc1ncco1)c1nnc(C)n1-2 [I-345] | > 3000 nM | < 500 nM |  |  |
| < 500 nM | < 500 nM |  |  | Cc1sc2c(c1C)C(c1ccc(OC3CN(CC4CCN(c5ccc(C(=O)N[C@H]6CC[C@H](Oc7ccc(C#N)c(Cl)c7)CC6)nn5)CC4)C3)cc1)=N[C@H](Cc1ncco1)c1nnc(C)n1-2 [I-82] | < 500 nM | < 500 nM |  |  |
| < 500 nM | < 500 nM |  |  | Cc1sc2c(c1C)C(c1ccc(C#C[C@H]3C[C@]4(CCCN(c5ccc(C(=O)N[C@H]6CC[C@H](Oc7ccc(C#N)c(Cl)c7)CC6)nn5)C4)C3)cc1)=N[C@@H](Cc1ncco1)c1nnc(C)n1-2 [I-234] | < 500 nM | < 500 nM |  |  |
| 500 to 1500 nM | < 500 nM |  |  | Cc1sc2c(c1C)C(c1ccc(C3CC([C@@H]4CCCN(c5ccc(C(=O)N[C@H]6CC[C@H](Oc7ccc(C#N)c(Cl)c7)CC6)nn5)C4)C3)cc1)=N[C@@H](Cc1ncco1)c1nnc(C)n1-2 (some centres unmarked) [I-378] | > 3000 nM | < 500 nM |  |  |
| 1500 to 3000 nM | 500 to 1500 nM |  |  | Cc1sc2c(c1C)C(c1ccc(CNC(=O)[C@H]3CCCN(c4ccc(C(=O)N[C@H]5CC[C@H](Oc6ccc(C#N)c(Cl)c6)CC5)nn4)C3)cc1)=N[C@@H](Cc1ncco1)c1nnc(C)n1-2 [I-229] | 500 to 1500 nM | < 500 nM |  |  |
| < 500 nM | < 500 nM |  |  | Cc1sc2c(c1C)C(c1ccc(CCC[C@@H]3CCCN(c4ccc(C(=O)N[C@H]5CC[C@H](Oc6ccc(C#N)c(Cl)c6)CC5)nn4)C3)cc1)=N[C@@H](Cc1ncco1)c1nnc(C)n1-2 [I-276] | < 500 nM | < 500 nM |  |  |
|  |  | < 500 nM | < 500 nM | Cc1sc2c(c1C)C(c1ccc(CCC3CCC4CN(c5ccc(C(=O)N[C@H]6CC[C@H](Oc7ccc(C#N)c(Cl)c7)CC6)nn5)CCN4C3)cc1)=NC(Cc1ncco1)c1nnc(C)n1-2 (some centres unmarked) [I-403] |  |  | < 500 nM | < 500 nM |
| < 500 nM | < 500 nM |  |  | Cc1sc2c(c1C)C(c1ccc(OC[C@H]3CC[C@@]4(CCCN(c5ccc(C(=O)N[C@H]6CC[C@H](Oc7ccc(C#N)c(Cl)c7)CC6)nn5)C4)C3)cc1)=N[C@@H](Cc1ncco1)c1nnc(C)n1-2 [I-102] | < 500 nM | < 500 nM |  |  |
| 500 to 1500 nM | < 500 nM |  |  | Cc1sc2c(c1C)C(c1ccc(O[C@H]3C[C@]4(CCCN(c5ccc(C(=O)N[C@H]6CC[C@H](Oc7ccc(C#N)c(Cl)c7)CC6)nn5)C4)C3)cc1)=N[C@@H](Cc1ncco1)c1nnc(C)n1-2 [I-93] | < 500 nM | < 500 nM |  |  |
